According to patent publication US12570659B2, “Bicyclic heteroaryl compounds useful as IRAK4 inhibitors” (BRISTOL-MYERS SQUIBB COMPANY, priority 2019, dated 2026):

What was measured:
[1] = target: IRAK4 (Homo sapiens (Human), UniProt Q9NWZ3); assay: IRAK4 Inhibition Assay; type: biochemical; settings: ATP 500 μM; IRAK4 0.6 nM; 60 min room temperature
Method: IRAK4 Inhibition Assay The assays were performed in U-bottom 384-well plates. […] The reaction was initiated by the combination of IRAK4 with substrates and test compounds. The reaction mixture was incubated at room temperature for 60 min. and terminated by adding 45 μL of 35 mM EDTA to each sample. The reaction mixture was analyzed on the Caliper LABCHIP® 3000 (Caliper, Hopkinton, MA) by electrophoretic separation of the fluorescent substrate and phosphorylated product. Inhibition data were calculated by comparison to no enzyme control reactions for 100% inhibition and vehicle-only reactions for 0% inhibition.

[2] = target: JAK3 kinase (Homo sapiens (Human), UniProt P52333); assay: JAK3 Homogeneous Time Resolved Fluorescence (HTRF) Assay; type: binding; settings: for IC50: competition binding with fluorescein-labeled ATP competitive probe; for Ratio of JAK3 IC50 to IRAK4 IC50: selectivity for IRAK4 over JAK3
JAK3 kinase, sequence (P52333 whole entry): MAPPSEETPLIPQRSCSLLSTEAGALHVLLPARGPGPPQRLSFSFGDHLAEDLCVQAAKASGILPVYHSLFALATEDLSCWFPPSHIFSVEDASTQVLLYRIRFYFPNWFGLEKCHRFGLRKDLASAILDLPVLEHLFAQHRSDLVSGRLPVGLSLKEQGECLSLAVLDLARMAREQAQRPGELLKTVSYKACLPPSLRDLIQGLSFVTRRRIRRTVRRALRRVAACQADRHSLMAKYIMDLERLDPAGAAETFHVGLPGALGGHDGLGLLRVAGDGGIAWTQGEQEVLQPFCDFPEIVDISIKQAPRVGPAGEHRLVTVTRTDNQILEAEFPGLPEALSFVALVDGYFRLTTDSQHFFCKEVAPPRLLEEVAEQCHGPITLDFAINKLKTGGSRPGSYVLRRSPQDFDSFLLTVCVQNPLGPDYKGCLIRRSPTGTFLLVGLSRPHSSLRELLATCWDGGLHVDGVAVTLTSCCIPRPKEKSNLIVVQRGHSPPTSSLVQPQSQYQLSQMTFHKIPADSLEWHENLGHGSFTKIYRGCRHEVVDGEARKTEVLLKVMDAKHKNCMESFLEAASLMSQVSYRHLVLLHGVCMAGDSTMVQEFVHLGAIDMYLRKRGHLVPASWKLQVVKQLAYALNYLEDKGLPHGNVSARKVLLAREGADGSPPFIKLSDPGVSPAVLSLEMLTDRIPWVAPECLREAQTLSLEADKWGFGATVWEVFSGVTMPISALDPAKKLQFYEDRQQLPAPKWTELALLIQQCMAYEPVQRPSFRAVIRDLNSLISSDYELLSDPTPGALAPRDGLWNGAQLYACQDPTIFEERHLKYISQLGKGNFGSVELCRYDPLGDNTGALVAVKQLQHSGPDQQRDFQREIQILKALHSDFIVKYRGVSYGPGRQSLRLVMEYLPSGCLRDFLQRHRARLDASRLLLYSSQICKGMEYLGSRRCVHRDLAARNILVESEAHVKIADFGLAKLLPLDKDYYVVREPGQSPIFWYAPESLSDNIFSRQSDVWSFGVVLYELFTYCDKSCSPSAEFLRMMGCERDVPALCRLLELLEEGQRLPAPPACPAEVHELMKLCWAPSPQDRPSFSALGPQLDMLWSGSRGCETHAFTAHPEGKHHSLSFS
Method: JAK3 Homogeneous Time Resolved Fluorescence (HTRF) Assay
A time resolved FRET-based competition binding assay was used to assess test article binding to JAK3 kinase. His-tagged or GST-tagged kinase at a concentration of 1 nM was incubated with 0.2 nM Tb-labeled detection antibody (anti-His or anti-GST), test compound, and fluorescein-labeled ATP competitive probe at a concentration corresponding to the probe's equilibrium dissociation constant for one hour. Fluorescence at 495 nm and 520 nm was measured using an EnVision microplate reader to quantify FRET between Tb-labeled detection antibody and fluorescein-labeled probe. Background subtracted FRET ratios were normalized to the maximum signal obtained in the absence of test compound. These values were converted to a percent inhibition. Percent inhibition was determined for test compounds at 11 concentrations. The IC50, defined as the concentration of the competing test compound needed to reduce specific binding of the probe by 50%, was calculated using the 4 parameter logistic equation to fit the data.

IRAK4, sequence (Q9NWZ3 whole entry, species assumed): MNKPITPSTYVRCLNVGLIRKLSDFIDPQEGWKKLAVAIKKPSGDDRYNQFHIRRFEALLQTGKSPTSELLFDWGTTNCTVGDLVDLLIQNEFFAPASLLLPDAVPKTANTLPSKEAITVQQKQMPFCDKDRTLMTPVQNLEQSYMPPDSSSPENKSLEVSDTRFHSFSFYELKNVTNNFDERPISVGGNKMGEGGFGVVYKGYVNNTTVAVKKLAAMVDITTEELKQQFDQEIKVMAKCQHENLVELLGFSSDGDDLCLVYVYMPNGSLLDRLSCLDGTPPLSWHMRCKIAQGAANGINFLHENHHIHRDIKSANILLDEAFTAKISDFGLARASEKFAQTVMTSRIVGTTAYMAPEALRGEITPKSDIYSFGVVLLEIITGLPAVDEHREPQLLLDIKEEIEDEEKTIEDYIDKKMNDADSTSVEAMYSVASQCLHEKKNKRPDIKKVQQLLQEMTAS

With `CC(C)Nc1c(C(=O)NC[C@@H](F)C(C)(C)O)cnn2cc(C3CC3)cc12` [Example 36, (R)-6-cyclopropyl-N-(2-fluoro-3-hydroxy-3-methylbutyl)-4-(isopropylamino)pyrrolo[1,2-b]pyridazine-3-carboxamide] the IC50 [1] was 46 nM, the IC50 [2] was > 50000 nM and the “Ratio of JAK3 IC50 to IRAK4 IC50” value [2] was >1087.

In the case of `CC(C)Nc1c(C(=O)NC[C@@H](F)C(C)(C)O)cnc2cc(-c3ccccc3F)nn12` [Example 135, (R)—N-(2-fluoro-3-hydroxy-3-methylbutyl)-2-(2-fluorophenyl)-7-(isopropylamino)pyrazolo[1,5-a]pyrimidine-6-carboxamide], the IC50 [1] is reported as 22 nM, the IC50 [2] is reported as > 10000 nM and the “Ratio of JAK3 IC50 to IRAK4 IC50” value [2] is reported as >455.

`COc1ncccc1-c1cc2c(NC(C)C)c(C(=O)N[C@H]3CC[C@H](NC(C)=O)CC3)cnn2c1` [Example 59, N-((1r,4r)-4-acetamidocyclohexyl)-4-(isopropylamino)-6-(2-methoxypyridin-3-yl)pyrrolo[1,2-b]pyridazine-3-carboxamide] was tested, and the IC50 [1] was 29 nM, the IC50 [2] was ~33000 nM and the “Ratio of JAK3 IC50 to IRAK4 IC50” value [2] was ~1138.

For `CC(C)Nc1c(C(=O)NC[C@@H](F)C(C)(C)O)cnc2cc(-c3ccc(=O)[nH]c3)nn12` [Example 123, (R)—N-(2-fluoro-3-hydroxy-3-methylbutyl)-7-(isopropylamino)-2-(6-oxo-1,6-dihydropyridin-3-yl)pyrazolo[1,5-a]pyrimidine-6-carboxamide], the IC50 [1] was 4.9 nM, the IC50 [2] was > 50000 nM and the “Ratio of JAK3 IC50 to IRAK4 IC50” value [2] was >10204.

With `CC(C)(O)[C@H](F)CNC(=O)c1cnc2cc(-c3cccnc3)nn2c1N[C@H]1CC[C@H](C(C)(C)O)CC1` [Example 159, N—((R)-2-fluoro-3-hydroxy-3-methylbutyl)-7-(((1r,4R)-4-(2-hydroxypropan-2-yl)cyclohexyl)amino)-2-(pyridin-3-yl)pyrazolo[1,5-a]pyrimidine-6-carboxamide] the IC50 [1] was 53 nM, the IC50 [2] was > 50000 nM and the “Ratio of JAK3 IC50 to IRAK4 IC50” value [2] was >943.

`CC(C)Nc1c(C(=O)NC[C@@H](F)C(C)(C)O)cnc2cc(C3CC3)nn12` [Example 147, (R)-2-cyclopropyl-N-(2-fluoro-3-hydroxy-3-methylbutyl)-7-(isopropylamino)pyrazolo[1,5-a]pyrimidine-6-carboxamide] was tested, and the IC50 [1] was 420 nM, the IC50 [2] was > 50000 nM and the “Ratio of JAK3 IC50 to IRAK4 IC50” value [2] was >119.

For `CC(C)Nc1c(C(=O)NC[C@@H](F)C(C)(C)O)cnc2cc(-c3cccc(C#N)c3)nn12` [Example 133, (R)-2-(3-cyanophenyl)-N-(2-fluoro-3-hydroxy-3-methylbutyl)-7-(isopropylamino)pyrazolo[1,5-a] pyrimidine-6-carboxamide], the IC50 [1] was 130 nM, the IC50 [2] was > 2000 nM and the “Ratio of JAK3 IC50 to IRAK4 IC50” value [2] was >15.

In the case of `CC(C)Nc1c(C(=O)NC[C@@H](F)C(C)(C)O)cnn2cc(-c3cccc(C#N)c3)nc12` [Example 98, (R)-2-(3-cyanophenyl)-N-(2-fluoro-3-hydroxy-3-methylbutyl)-8-(isopropylamino)imidazo[1,2-b]pyridazine-7-carboxamide], the IC50 [1] is reported as 240 nM, the IC50 [2] is reported as > 50000 nM and the “Ratio of JAK3 IC50 to IRAK4 IC50” value [2] is reported as >208.

`CC(C)Nc1c(C(=O)NC[C@@H](F)C(C)(C)O)cnn2cccc12` [Example 96, (R)—N-(2-fluoro-3-hydroxy-3-methylbutyl)-4-(isopropylamino)pyrrolo[1,2-b]pyridazine-3-carboxamide] was tested, and the IC50 [1] was 740 nM, the IC50 [2] was > 50000 nM and the “Ratio of JAK3 IC50 to IRAK4 IC50” value [2] was >68.

In the case of `Cc1ccccc1-c1cc2ncc(C(=O)NC[C@@H](F)C(C)(C)O)c(NC(C)C)n2n1` [Example 136, (R)—N-(2-fluoro-3-hydroxy-3-methylbutyl)-7-(isopropylamino)-2-(o-tolyl)pyrazolo[1,5-a]pyrimidine-6-carboxamide], the IC50 [1] is reported as 510 nM, the IC50 [2] is reported as > 10000 nM and the “Ratio of JAK3 IC50 to IRAK4 IC50” value [2] is reported as >20.

With `CC(C)(O)[C@H](F)CNC(=O)c1cnn2cc(-c3cccnc3)cc2c1NC1CCOCC1` [Example 6, (R)—N-(2-fluoro-3-hydroxy-3-methylbutyl)-6-(pyridin-3-yl)-4-((tetrahydro-2H-pyran-4-yl)amino) pyrrolo[1,2-b] pyridazine-3-carboxamide] the IC50 [1] was 54 nM, the IC50 [2] was > 50000 nM and the “Ratio of JAK3 IC50 to IRAK4 IC50” value [2] was >926.

`CC(C)(O)[C@H](F)CNC(=O)c1cnc2cc(-c3cccnc3)nn2c1NCC(F)F` [Example 129, (R)-7-((2,2-difluoroethyl)amino)-N-(2-fluoro-3-hydroxy-3-methylbutyl)-2-(pyridin-3-yl) pyrazolo[1,5-a]pyrimidine-6-carboxamide] was tested, and the IC50 [1] was 300 nM, the IC50 [2] was > 10000 nM and the “Ratio of JAK3 IC50 to IRAK4 IC50” value [2] was >33.

In the case of `CC(C)(C)CNc1c(C(=O)NC[C@@H](F)C(C)(C)O)cnc2cc(-c3cccnc3)nn12` [Example 155, (R)—N-(2-fluoro-3-hydroxy-3-methylbutyl)-7-(neopentylamino)-2-(pyridin-3-yl)pyrazolo[1,5-a]pyrimidine-6-carboxamide], the IC50 [1] is reported as 90 nM, the IC50 [2] is reported as > 50000 nM and the “Ratio of JAK3 IC50 to IRAK4 IC50” value [2] is reported as >556.

`CC(C)Nc1c(C(=O)NC[C@@H](F)C(C)(C)O)cnc2cc(-c3cnn(C)c3)nn12` [Example 126, (R)—N-(2-fluoro-3-hydroxy-3-methylbutyl)-7-(isopropylamino)-2-(1-methyl-1H-pyrazol-4-yl)pyrazolo[1,5-a]pyrimidine-6-carboxamide] was tested, and the IC50 [1] was 240 nM, the IC50 [2] was > 50000 nM and the “Ratio of JAK3 IC50 to IRAK4 IC50” value [2] was >208.

For `Cc1cc(F)ncc1-c1cn2ncc(C(=O)N[C@H]3C[C@H](C(C)(C)O)C3)c(NC(C)C)c2n1` [Example 113, 2-(6-fluoro-4-methylpyridin-3-yl)-N-((1r,3r)-3-(2-hydroxypropan-2-yl)cyclobutyl)-8-(isopropylamino) imidazo[1,2-b]pyridazine-7-carboxamide], the IC50 [1] was 96 nM, the IC50 [2] was > 50000 nM and the “Ratio of JAK3 IC50 to IRAK4 IC50” value [2] was >521.

`COc1cc(-c2cc3c(NC(C)C)c(C(=O)N[C@H]4CC[C@H](O)CC4)cnn3c2)c(F)cn1` [Example 57, 6-(5-fluoro-2-methoxypyridin-4-yl)-N-((1r,4r)-4-hydroxycyclohexyl)-4-(isopropylamino)pyrrolo[1,2-b]pyridazine-3-carboxamide] was tested, and the IC50 [1] was 20 nM, the IC50 [2] was > 50000 nM and the “Ratio of JAK3 IC50 to IRAK4 IC50” value [2] was >2500.

`COc1ccc(-c2cc3ncc(C(=O)NC[C@@H](F)C(C)(C)O)c(NC(C)C)n3n2)cn1` [Example 142, (R)—N-(2-fluoro-3-hydroxy-3-methylbutyl)-7-(isopropylamino)-2-(6-methoxypyridin-3-yl)pyrazolo[1,5-a]pyrimidine-6-carboxamide] was tested, and the IC50 [1] was 140 nM, the IC50 [2] was > 10000 nM and the “Ratio of JAK3 IC50 to IRAK4 IC50” value [2] was >71.

For `CC(C)(O)CCNc1c(C(=O)NC[C@@H](F)C(C)(C)O)cnn2cc(-c3cccnc3)cc12` [Example 25, (R)—N-(2-fluoro-3-hydroxy-3-methylbutyl)-4-((3-hydroxy-3-methylbutyl)amino)-6-(pyridin-3-yl) pyrrolo[1,2-b]pyridazine-3-carboxamide], the IC50 [1] was 280 nM, the IC50 [2] was > 50000 nM and the “Ratio of JAK3 IC50 to IRAK4 IC50” value [2] was >179.

With `CC(C)Nc1c(C(=O)NC[C@@H](F)C(C)(C)O)cnc2cc(-c3ccccn3)nn12` [Example 152, (R)—N-(2-fluoro-3-hydroxy-3-methylbutyl)-7-(isopropylamino)-2-(pyridin-2-yl)pyrazolo[1,5-a]pyrimidine-6-carboxamide] the IC50 [1] was 160 nM, the IC50 [2] was > 10000 nM and the “Ratio of JAK3 IC50 to IRAK4 IC50” value [2] was >63.

`CCOC(=O)N[C@H]1CC[C@H](NC(=O)c2cnn3cc(-c4ccncc4F)cc3c2NC(C)C)CC1` [Example 67, ethyl ((1r,4r)-4-(6-(3-fluoropyridin-4-yl)-4-(isopropylamino)pyrrolo[1,2-b]pyridazine-3-carboxamido)cyclohexyl)carbamate] was tested, and the IC50 [1] was 13 nM, the IC50 [2] was > 50000 nM and the “Ratio of JAK3 IC50 to IRAK4 IC50” value [2] was 3846.

`CC(C)Nc1c(C(=O)NC[C@@H](F)C(C)(C)O)cnc2cc(-c3cncc(C(C)(C)O)c3)nn12` [Example 150, (R)—N-(2-fluoro-3-hydroxy-3-methylbutyl)-2-(5-(2-hydroxypropan-2-yl)pyridin-3-yl)-7-(isopropylamino)pyrazolo[1,5-a]pyrimidine-6-carboxamide] was tested, and the IC50 [1] was 560 nM, the IC50 [2] was > 10000 nM and the “Ratio of JAK3 IC50 to IRAK4 IC50” value [2] was >18.

With `CC(C)(O)[C@H](F)CNC(=O)c1cnn2cc(-c3cccnc3F)cc2c1NC1CCOCC1` [Example 8, (R)—N-(2-fluoro-3-hydroxy-3-methylbutyl)-6-(2-fluoropyridin-3-yl)-4-((tetrahydro-2H-pyran-4-yl)amino)pyrrolo[1,2-b]pyridazine-3-carboxamide] the IC50 [1] was 25 nM, the IC50 [2] was > 50000 nM and the “Ratio of JAK3 IC50 to IRAK4 IC50” value [2] was >2000.

With `CC(C)Nc1c(C(=O)NC[C@@H](F)C(C)(C)O)cnn2cc(-c3cnn4cc(Cl)cnc34)cc12` [Example 38, (R)-6-(6-chloropyrazolo[1,5-a]pyrimidin-3-yl)-N-(2-fluoro-3-hydroxy-3-methylbutyl)-4-(isopropylamino)pyrrolo[1,2-b]pyridazine-3-carboxamide] the IC50 [1] was 39 nM, the IC50 [2] was > 9900 nM and the “Ratio of JAK3 IC50 to IRAK4 IC50” value [2] was >254.
